The values below are quoted from earlier work in US20010014678A1, “Nicotine addiction treatment” (CARY MEDICAL CORPORATION, priority 1997, published 2001).

Molecules are shown by their SMILES.

As to `CN1CCCC1c1cccnc1` (centres unmarked) [nicotine], the metabolic half-life result (in vivo) is reported as “roughly 2 hours”. For the same molecule, where the note is “provided by one cigarette”, the “nicotine in venous blood” value is 5 to 30 ng/mL.
